The source made the active and inactive calls. The calls are words filed in the database; no cut-off is given here.
What was measured:
HT-29 = assay: Antiproliferative activity against human HT-29 cells with PIK3CA mutation assessed as inhibition of cell growth incubated for 48 to 72 hrs by MTT assay; assay type: functional, cell-based
NCI-H3122 = assay: Antiproliferative activity against human NCI-H3122 cells assessed as inhibition of cell growth incubated for 48 to 72 hrs by MTT assay; assay type: functional, cell-based
SW-620 [1] = assay: Inhibition of colony formation in human SW620 cells assessed as reduction in colony forming ability incubated for 15 days by crystal violet staining based analysis; assay type: functional, cell-based; details: dose 0.15625-1.25 µM, time 15.0 day, DDE = dose-dependent effect
HeLa [2] = assay: Induction of apoptosis in human HeLa cells assessed as viable cells at 0.3125 uM incubated for 36 hrs by Annexin V-FITC/PI staining based flow cytometric analysis (reference value: 96.14 %); assay type: functional; details: read-out: Activity
HeLa [3] = assay: Induction of apoptosis in human HeLa cells assessed as early apoptotic cells at 0.3125 uM incubated for 36 hrs by Annexin V-FITC/PI staining based flow cytometric analysis (reference value: 2.02 %); assay type: functional
HeLa [4] = assay: Induction of apoptosis in human HeLa cells assessed as late apoptotic cells at 0.3125 uM incubated for 36 hrs by Annexin V-FITC/PI staining based flow cytometric analysis (reference value: 1.4 %); assay type: functional
HeLa [5] = assay: Induction of apoptosis in human HeLa cells assessed as late apoptotic cells at 0.625 uM incubated for 36 hrs by Annexin V-FITC/PI staining based flow cytometric analysis (reference value: 1.4 %); assay type: functional
HeLa [6] = assay: Induction of apoptosis in human HeLa cells assessed as dead cells at 0.625 uM incubated for 36 hrs by Annexin V-FITC/PI staining based flow cytometric analysis (reference value: 0.44 %); assay type: functional
HeLa [7] = assay: Induction of apoptosis in human HeLa cells assessed as viable cells at 2.5 uM incubated for 36 hrs by Annexin V-FITC/PI staining based flow cytometric analysis (reference value: 96.14 %); assay type: functional; details: read-out: Activity
HeLa [8] = assay: Inhibition of PI3K/mTOR signalling pathway in human HeLa cells assessed as inhibition of S6 protein phosphorylation incubated for 24 hrs by Western blot analysis; assay type: cell-based; details: dose 0.3125-2.5 µM, DDE = dose-dependent effect
[9] = Half life in Sprague-Dawley rat at 1 mg/kg, iv measured for 24 hrs by LC-MS/MS analysis; assay type: ADME, organism-based; details: in vivo
[10] = Volume of distribution at steady state in Sprague-Dawley rat at 1 mg/kg, iv measured for 24 hrs by LC-MS/MS analysis; assay type: ADME, organism-based; details: in vivo, read-out: Vdss
[11] = Tmax in Sprague-Dawley rat at 10 mg/kg, po measured for 24 hrs by LC-MS/MS analysis; assay type: ADME, organism-based; details: in vivo
[12] = AUC (0 to infinity) in Sprague-Dawley rat at 10 mg/kg, po measured for 24 hrs by LC-MS/MS analysis; assay type: ADME, organism-based; design: time 24 hrs, dose 10 mg/kg, route po; details: in vivo
SW-620 [13] = assay: Antitumor activity against human SW620 cells xenografted in BALB/c nude mouse assessed as tumor growth inhibition at 60 mg/kg, IG administered daily for 30 days and measured every 2 days relative to control; assay type: functional; details: SW-620, po, 720 h, time 30 day, read-out: TGI
[14] = Toxicity in BALB/c nude mouse xenografted with human HeLa cells assessed as lethality at 15 to 60 mg/kg, IG administered daily for 30 days and measured every 2 days; assay type: organism-based; details: in vivo, po, 720 h, dose 15-60 mg/kg, time 30 day
[15] = Toxicity in BALB/c nude mouse xenografted with human HeLa cells assessed as reduction in body weight at 15 to 60 mg/kg, IG administered daily for 30 days and measured every 2 days; assay type: organism-based; details: in vivo, po, 720 h, dose 15-60 mg/kg, time 30 day
Mus musculus [16] = assay: In vivo inhibition of PI3K/mTOR signalling pathway in BALB/c nude mouse xenografted with human HeLa cells assessed as downregulation of Akt phosphorylation at Ser473 residue in tumor at 15 to 60 mg/kg, IG administered daily for 30 days; assay type: functional, organism-based; details: dose 15-60 mg/kg, time 30.0 day
Mus musculus [17] = assay: In vivo inhibition of PI3K/mTOR signalling pathway in BALB/c nude mouse xenografted with human HeLa cells assessed as downregulation of pS6 protein expression in tumor at 15 to 60 mg/kg, IG administered daily for 30 days; assay type: functional, organism-based; details: dose 15-60 mg/kg, time 30.0 day
[18] = target: Phosphatidylinositol 4,5-bisphosphate 3-kinase catalytic subunit beta isoform (Homo sapiens, UniProt P42338); assay: Inhibition of PI3Kbeta (unknown origin) using L-alpha-phosphatidylinositol as substrate incubated for 60 mins in presence of ATP by Kinase Glo luminescence assay
[19] = target: T1, Phosphatidylinositol 4,5-bisphosphate 3-kinase catalytic subunit delta isoform (Homo sapiens, UniProt O00329); assay: Inhibition of PI3Kdelta (unknown origin) using L-alpha-phosphatidylinositol as substrate incubated for 60 mins in presence of ATP by Kinase Glo luminescence assay
T1 sequence (O00329 whole entry): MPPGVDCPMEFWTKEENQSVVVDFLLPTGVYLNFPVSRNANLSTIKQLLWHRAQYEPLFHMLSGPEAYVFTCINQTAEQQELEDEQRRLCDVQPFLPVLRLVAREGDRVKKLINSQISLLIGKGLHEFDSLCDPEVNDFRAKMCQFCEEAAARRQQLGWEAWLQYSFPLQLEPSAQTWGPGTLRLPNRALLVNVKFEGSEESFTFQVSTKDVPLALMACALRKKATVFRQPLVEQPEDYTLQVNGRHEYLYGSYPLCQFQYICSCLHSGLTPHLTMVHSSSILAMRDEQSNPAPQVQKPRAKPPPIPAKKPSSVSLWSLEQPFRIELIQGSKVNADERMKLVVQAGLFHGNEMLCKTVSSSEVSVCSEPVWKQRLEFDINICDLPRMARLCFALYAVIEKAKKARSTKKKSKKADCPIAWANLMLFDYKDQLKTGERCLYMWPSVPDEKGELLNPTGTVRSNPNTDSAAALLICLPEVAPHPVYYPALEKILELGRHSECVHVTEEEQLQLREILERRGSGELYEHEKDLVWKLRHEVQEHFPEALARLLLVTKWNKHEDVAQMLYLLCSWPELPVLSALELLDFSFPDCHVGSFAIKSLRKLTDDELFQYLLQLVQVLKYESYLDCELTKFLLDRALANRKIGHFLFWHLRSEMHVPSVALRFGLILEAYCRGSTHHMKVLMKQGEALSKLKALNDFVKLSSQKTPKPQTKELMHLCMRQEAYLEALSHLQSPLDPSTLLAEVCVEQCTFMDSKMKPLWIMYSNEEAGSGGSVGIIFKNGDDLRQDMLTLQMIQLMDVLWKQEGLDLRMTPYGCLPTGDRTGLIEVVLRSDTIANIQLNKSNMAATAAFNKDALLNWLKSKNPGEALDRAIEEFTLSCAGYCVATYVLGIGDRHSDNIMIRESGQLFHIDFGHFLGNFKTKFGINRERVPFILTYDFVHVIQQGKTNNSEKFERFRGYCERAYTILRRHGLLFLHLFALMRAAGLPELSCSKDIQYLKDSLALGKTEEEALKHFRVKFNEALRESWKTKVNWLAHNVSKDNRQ

Phosphatidylinositol 4,5-bisphosphate 3-kinase catalytic subunit beta isoform, sequence (P42338 whole entry, canonical isoform): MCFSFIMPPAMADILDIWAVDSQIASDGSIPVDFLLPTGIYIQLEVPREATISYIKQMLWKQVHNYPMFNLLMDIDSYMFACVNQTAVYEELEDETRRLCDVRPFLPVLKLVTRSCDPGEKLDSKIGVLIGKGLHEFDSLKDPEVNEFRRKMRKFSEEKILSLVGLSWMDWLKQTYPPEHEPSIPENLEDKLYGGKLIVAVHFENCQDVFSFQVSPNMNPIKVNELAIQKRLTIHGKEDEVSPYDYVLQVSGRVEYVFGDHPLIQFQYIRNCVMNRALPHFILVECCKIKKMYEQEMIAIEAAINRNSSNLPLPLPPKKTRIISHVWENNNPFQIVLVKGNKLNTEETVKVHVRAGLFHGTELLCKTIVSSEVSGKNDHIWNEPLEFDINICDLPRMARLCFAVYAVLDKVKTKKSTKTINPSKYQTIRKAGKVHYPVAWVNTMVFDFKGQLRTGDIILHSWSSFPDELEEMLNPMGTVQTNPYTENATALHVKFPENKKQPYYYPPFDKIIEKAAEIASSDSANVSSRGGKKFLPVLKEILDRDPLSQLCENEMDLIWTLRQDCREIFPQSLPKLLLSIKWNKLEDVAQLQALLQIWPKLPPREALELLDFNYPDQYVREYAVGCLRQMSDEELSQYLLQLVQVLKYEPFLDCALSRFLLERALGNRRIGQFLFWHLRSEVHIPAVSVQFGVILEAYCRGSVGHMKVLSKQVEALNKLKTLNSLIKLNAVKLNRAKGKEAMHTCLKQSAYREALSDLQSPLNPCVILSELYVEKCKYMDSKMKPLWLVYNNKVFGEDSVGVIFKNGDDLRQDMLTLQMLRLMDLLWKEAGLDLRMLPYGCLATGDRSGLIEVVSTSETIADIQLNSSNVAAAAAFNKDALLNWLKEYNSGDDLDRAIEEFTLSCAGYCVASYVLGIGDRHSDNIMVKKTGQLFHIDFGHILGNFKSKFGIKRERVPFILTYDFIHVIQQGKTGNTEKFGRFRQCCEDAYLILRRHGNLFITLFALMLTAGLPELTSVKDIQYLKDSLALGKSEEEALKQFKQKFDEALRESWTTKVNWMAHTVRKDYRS

**Q.** Which results are given for Cc1nc2cnc3ccc(-c4cnc5[nH]ccc5c4)cc3c2n1-c1ccc(C(C)(C)C#N)nc1?
**A.** IC50 (HT-29): 250 nM; IC50 (NCI-H3122): 290 nM; inhibition (SW-620 [1]): Dde; viability at 0.3125 µM (HeLa [2]): 89.9%; Activity (HeLa [3]): 6.23%; Activity (HeLa [4]): 3%; Activity (HeLa [5]): 8.81%; Activity (HeLa [6]): 2.75%; viability at 2.5 µM (HeLa [7]): 27.8%; inhibition (HeLa [8]): Dde; half-life [9]: 1.16 h; Vd [10]: 1.53 L/kg; Tmax [11]: 0.75 h; AUC [12]: 7620 ng·h/mL; inhibition in vivo at 60 mg/kg (SW-620 [13]): 81%; Activity [14]: Non-Toxic; Activity [15]: Non-Toxic; inhibition (Mus musculus [16]): Active; inhibition (Mus musculus [17]): Active; IC50 [18]: 75 nM; IC50 [19]: 7 nM

Reference: ChEMBL document CHEMBL5108059, “Discovery of 2-Methyl-2-(4-(2-methyl-8-(1H-pyrrolo[2,3-b]pyridin-6-yl)-1H-naphtho[1,2-d]imidazol-1-yl)phenyl)propanenitrile as a Novel PI3K/mTOR Inhibitor with Enhanced Antitumor Efficacy In Vitro and In Vivo” (J Med Chem, 2022)
